In the NIST ThermoML archive (doi:10.1021/je034225b):

What was measured:
[1] = xn = mol fraction of the nth substance listed; conditions: for surface tension liquid-gas: 297 K; for mass density: 100 kPa, Liquid, Pycnometric method
[2] = 297 K

O=S(=O)(O)O [sulfuric acid] + O
[1]
Conditions | surface tension liquid-gas [mN/m]
x1 = 0.001 | 71.6
x1 = 0.003 | 71.4
x1 = 0.006 | 71.2
x1 = 0.008 | 71.9
x1 = 0.026 | 72.4
x1 = 0.052 | 73.1
x1 = 0.09 | 74
x1 = 0.125 | 74.7
x1 = 0.18 | 75.2
x1 = 0.25 | 73.6
x1 = 0.35 | 72.3
x1 = 0.48 | 69.4

mass density [kg/m3], [1]
Conditions | 298.15 K | 571.15 K
x1 = 0.001 | 998 | –
x1 = 0.003 | 1005 | 1005
x1 = 0.006 | 1017 | –
x1 = 0.008 | 1024 | –
x1 = 0.026 | 1085 | –
x1 = 0.052 | 1156 | –
x1 = 0.09 | 1253 | –
x1 = 0.125 | 1328 | –
x1 = 0.18 | 1422 | –
x1 = 0.25 | 1528 | –
x1 = 0.35 | 1622 | –
x1 = 0.48 | 1725 | –

O [water]
Conditions | surface tension liquid-gas [mN/m]
[2] | 70.4

CNC [dimethylamine] + O
[1]
Conditions | surface tension liquid-gas [mN/m]
x1 = 0.002 | 68.4
x1 = 0.003 | 65.7
x1 = 0.004 | 65.8
x1 = 0.006 | 64.7
x1 = 0.008 | 62.8
x1 = 0.01 | 61.8
x1 = 0.013 | 60.4
x1 = 0.016 | 58.4
x1 = 0.025 | 56.1
x1 = 0.034 | 53.2
x1 = 0.043 | 51
x1 = 0.052 | 49.1
x1 = 0.061 | 48.1
x1 = 0.071 | 47.8
x1 = 0.091 | 42.4
x1 = 0.112 | 40.4
x1 = 0.135 | 38.9
x1 = 0.158 | 36.8
x1 = 0.184 | 35.3
x1 = 0.21 | 33.7

[1], 298.15 K
Conditions | mass density [kg/m3]
x1 = 0.001 | 998
x1 = 0.002 | 994
x1 = 0.004 | 988
x1 = 0.008 | 987
x1 = 0.016 | 984
x1 = 0.025 | 974
x1 = 0.034 | 969
x1 = 0.043 | 967
x1 = 0.091 | 941
x1 = 0.146 | 918
x1 = 0.21 | 888
